Source: a melting point compilation (Tetko et al.)

Settings: a range is the spread between reports
In the case of O=C(c1ccc(F)cc1)c1ccc(F)cc1, the melting point is reported as 104 to 108 °C.
Work on ICCI yielded a melting point of 80 to 83 °C.
Compound ClC(c1ccccc1)c1ccccc1 has a melting point of 16 to 19 °C.
For CCCOC(=O)c1ccc(O)cc1, the melting point was 96 to 97 °C.
CCCl gave a melting point of -139 °C.
Nc1ccc(-c2ccccc2)cc1 showed a melting point of 53 to 54 °C.
Cc1cccc(C)n1 showed a melting point of -7 to -6 °C.
With CN(C)c1cccc(O)c1 the melting point was 82 to 86 °C.
For CCCc1cc(O)nc(S)n1, the melting point was 219 to 220 °C.
Compound C=CC(CC)CC has a melting point of -128 to -127 °C.
CCc1cc(C)c(C)cc1C showed a melting point of -14 to -13.5 °C.
Work on CC(C)(C)C yielded a melting point of -17 to -16.4 °C.
In the case of Cc1ccccc1C, the melting point is reported as -25.2 to -25 °C.
For OC(CCN1CCCCC1)(c1ccccc1)C1CCCCC1 (stereo not given), the melting point was 114 to 115 °C.
In the case of OCC(CO)(CO)COCC(CO)(CO)CO, the melting point is reported as 217 to 221 °C.
Work on O=C(O)Cc1cccc(Cl)c1 yielded a melting point of 78 to 79 °C.
For O=[N+]([O-])c1ccc(Cl)cc1, the melting point was 83.5 to 84 °C.
Compound c1ccc(COc2ccc3[nH]ccc3c2)cc1 has a melting point of 99 to 102 °C.
Compound CC/C=C/CC(=O)O has a melting point of 11 to 12 °C.
For CN1CCN(C)C1=O, the melting point was 8 to 8.2 °C.
Work on CC(C)O yielded a melting point of -90 to -88 °C.
For C#CC1(O)CCCC1, the melting point was 25 to 27 °C.
In the case of O=C(O)COCC(=O)O, the melting point is reported as 143 to 148 °C.
Compound C[Si]1(C)O[Si](C)(C)O[Si](C)(C)O1 has a melting point of 60 to 65 °C.
O=C(c1ccccc1)c1ccncc1 showed a melting point of 70 to 72 °C.
Compound CCCCCCCCCCCCCO has a melting point of 32.5 to 34 °C.
With BrCc1ccccc1CBr the melting point was 94 to 95 °C.
For Fc1ccccc1I, the melting point was -42 to -41.5 °C.
With Cc1ccc[nH]c1=O the melting point was 138 to 142 °C.
In the case of CCc1ccc(C)cc1, the melting point is reported as -62.3 to -62 °C.
O=[N+]([O-])c1ccc(F)cc1 gave a melting point of 21 to 23 °C.
Fc1ccc(C(F)(F)F)cc1 gave a melting point of -42 to -41.7 °C.
For COCC(C)O (stereo not given), the melting point was -100 to -95 °C.
In the case of NNc1c(F)c(F)cc(F)c1F, the melting point is reported as 89 to 92 °C.
In the case of O=c1c2ccccc2sc2ccccc12, the melting point is reported as 209 to 212 °C.
Work on Cc1ccc([N+](=O)[O-])c(O)c1 yielded a melting point of 53 to 55 °C.
For O=C(O)COc1ccccc1, the melting point was 98.5 to 100 °C.
In the case of CCOC(=O)c1ccc(N)cc1, the melting point is reported as 88 to 92 °C.
CC(C)=NO gave a melting point of 61 to 62 °C.
With Cc1cc(-c2ccc(N)c(C)c2)ccc1N the melting point was 130 to 132 °C.
O=C1c2ccccc2C(=O)c2ccccc21 showed a melting point of 284 to 286 °C.
Compound NCC(CC(=O)O)c1ccc(Cl)cc1 (stereo not given) has a melting point of 207 to 208 °C.
Compound CC(C)(C)c1ccc(C(=O)O)cc1 has a melting point of 164 to 166 °C.
With O=CC=Cc1ccco1 the melting point was 51 to 54 °C.
Work on CCOCC yielded a melting point of -116 °C.
For c1ccc(CNCCNCc2ccccc2)cc1, the melting point was 24 to 26 °C.
Work on O=Cc1ccc(CO)o1 yielded a melting point of 31.5 to 34 °C.
For Clc1ccc(C(c2ccccc2Cl)C(Cl)(Cl)Cl)cc1 (stereo not given), the melting point was 74.2 to 75 °C.
With O=Cc1ccc(O)c([N+](=O)[O-])c1 the melting point was 141 to 142 °C.
With O=C(O)c1cccc(O)c1 the melting point was 202 to 203 °C.
In the case of COc1cc(OC)cc(C(=O)O)c1, the melting point is reported as 184 to 186 °C.
Work on ICCCCI yielded a melting point of 5.8 to 6 °C.
O=C(O)C(Cl)(Cl)Cl gave a melting point of 56 to 57.5 °C.
In the case of CC/C=C/CC, the melting point is reported as -115 to -113 °C.
Work on ClC(Cl)c1ccccc1 yielded a melting point of -17 to -16 °C.
Work on CC(=O)c1ccc(O)cc1O yielded a melting point of 144 to 146 °C.
COc1ccc(C(C)=O)cc1 showed a melting point of 38 to 38.5 °C.
Work on c1cc2cccc3c4cccc5cccc(c(c1)c23)c54 yielded a melting point of 274 to 278 °C.
Fc1ccc(N=C=S)cc1 gave a melting point of 26 to 27 °C.
C=CC(=O)O showed a melting point of 12.5 to 13.5 °C.
N#Cc1cccc(C#N)c1 gave a melting point of 161 to 162 °C.
For CC(F)(F)F, the melting point was -111 °C.
O=C(CCl)CCl gave a melting point of 44 to 45 °C.
NCCc1c[nH]c2ccccc12 showed a melting point of 114 to 118 °C.
Cc1ccc([N+](=O)[O-])cc1 gave a melting point of 51 to 54 °C.
CCCCCCCCCCCCCCCCCCCCCCO gave a melting point of 70 to 72.5 °C.
Compound O=[N+]([O-])c1cc([N+](=O)[O-])c2ccccc2c1 has a melting point of 147 to 148 °C.
For Cc1ccc(CO)cc1, the melting point was 59 to 61.5 °C.
For c1ccc(-c2c3ccccc3c(-c3ccccc3)c3ccccc23)cc1, the melting point was 246 to 251 °C.
CCc1ccccc1 gave a melting point of -95 to -94.9 °C.
For CCOc1ccccc1O, the melting point was 26 to 29 °C.
Work on ClC(Cl)C(Cl)Cl yielded a melting point of -44 to -43 °C.
Compound O=C(O)c1cc(Cl)ccc1[N+](=O)[O-] has a melting point of 138 to 139 °C.
BrCc1ccc2ccccc2c1 showed a melting point of 53 to 56 °C.
Work on O=S1(=O)CCCC1 yielded a melting point of 27 to 27.6 °C.
For CCCCCCCCCCCC, the melting point was -10 to -9.6 °C.
Compound CC(=O)C1C(=O)C=C(C)OC1=O (stereo not given) has a melting point of 109 to 111 °C.
Work on CCOC(=O)C(C(=O)OCC)c1ccccc1 yielded a melting point of 16 to 16.5 °C.
CC(=O)OO showed a melting point of -0.2 to 0.1 °C.
With CCOP(=O)(OCC)OCC the melting point was -56.4 to -56 °C.
For C=Cc1ccc(F)cc1, the melting point was -36 to -34.5 °C.
In the case of Cc1cc(C)c(O)c(C)c1, the melting point is reported as 72 to 73 °C.
Compound O=C(O)c1cccc(Br)c1 has a melting point of 155 to 157 °C.
Work on O=Cc1c(O)ccc2ccccc12 yielded a melting point of 79 to 83 °C.
CCC#CCCCC showed a melting point of -104 °C.
